Experimental data taken from patent publication US7968093B2, “Fully human antibodies directed against the human insulin-like growth factor-1 receptor” (ImClone LLC, priority 2003, dated 2011).

How the values were obtained:
[1] = test system: HT-29 human colon carcinoma; assay: HT-29 xenograft, A12 with CPT-11 or paclitaxel; type: in vivo, nu/nu mice; conditions: for inhibition of growth of HT-29 xenografts compared to TBS control: single agent
Experimental: […] nu/nu mice were injected subcutaneously with HT-29 human colon carcinoma cell suspension, at 5×10^6 cells in 0.4 ml mixed 1:1 with Matrigel. […] All treatments were administered by intraperitoneal injection.
Treatment continued for six weeks and tumor measurements were recorded twice weekly using the formula Volume=(π/6)l×w^2. At day 21 four animals per group were sacrificed and the tumors resected for histological evaluation. Treatment and tumor measurements continued on the remaining animals until day 40. At that time final tumor measurements were recorded, animals sacrificed, and four per group had tumor resected for endpoint histological evaluation.

[2] = test system: HT-29 human colorectal cancer cells; assay: HT-29 xenograft, 2F8 alone or with CPT-11; type: in vivo, athymic nude (nu/nu) mice; conditions: 2F8 0.5 mg or 1 mg IP every three days; CPT-11 100 mg/kg IP once a week
Experimental: We were interested to determine if the anti-IGF-IR antibodies were capable of inhibiting human tumor growth in vivo in a nude mouse xenograft model. Tumors were induced in 3-4 week old athymic nude (nu/nu) mice by subcutaneous injection of 2-3 million viable HT-29 human colorectal cancer cells in cell culture medium. The tumors were allowed to establish and antibody treatment started when the tumor volume reached 200 mm^3. Ten animals were injected with tumor cells per treatment group. Antibody was injected intraperitoneally (IP) every three days at 1 mg or 0.5 mg in 0.5 ml TBS. The drug irenotecan (CPT-11) (LKT Laboratories) was injected IP (100 mg/kg) once a week for four weeks from the initiation of antibody treatment. Control animals received a class matched irrelevant human IgG antibody. Tumor measurements were performed at regular intervals using Vernier calipers, measuring height, width, and length and calculated to determine the total tumor volume. The study was terminated when control tumors reached 3000 mm^3.

[3] = test system: BxPC-3 human pancreatic carcinoma cells; assay: BxPC-3 xenograft, A12 with CPT-11 or gemcitabine; type: in vivo, athymic nu/nu mice; conditions: for animals with partial tumor regressions: after five weeks of treatment
Experimental: Athymic nu/nu mice were injected subcutaneously with 2×10^6 BxPC-3 human pancreatic carcinoma cells mixed 1:1 with Matrigel. […] All treatments were administered by intraperitoneal injection. Tumor measurements were recorded twice weekly using the formula Volume=(π/6)l×w^2.
At day 18 three animals per group were sacrificed and the tumors resected for midpoint histological evaluation. Treatment and tumor measurements continued on the remaining animals until day 44 with the exception of the TBS group. […] At termination of the study final tumor measurements were recorded, animals sacrificed, and four per group had tumors resected for endpoint histological evaluation.

[4] = day 12, ip, A12 1 mg 3 times per week, irinotecan 2 mg or paclitaxel 121 μg every 7 days
[5] = day 19, ip, A12 1 mg 3 times per week, irinotecan 1 mg or gemcitabine 2.5 mg every 7 days

SMILES	T/C % [1, 4]	T/C % ([1]; day 15, same regimens)	T/C % ([1]; day 19, same regimens)	T/C % ([1]; day 22, same regimens)	T/C % ([1]; day 26, same regimens)	T/C % ([1]; day 29, same regimens)	T/C % ([1]; day 33, same regimens)	T/C % ([1]; day 36, same regimens)	T/C % ([1]; day 40, same regimens)	inhibition of growth of HT-29 xenografts compared to TBS control [1]	animals with partial tumor regressions [3]	T/C % [3, 5]	T/C % ([3]; day 23, same regimens)	T/C % ([3]; day 26, same regimens)	T/C % ([3]; day 30, same regimens)	T/C % ([3]; day 32, same regimens)	T/C % ([3]; day 37, same regimens)	also measured
CCc1c2c(nc3ccc(OC(=O)N4CCC(N5CCCCC5)CC4)cc13)-c1cc3c(c(=O)n1C2)COC(=O)[C@]3(O)CC [CPT-11, irinotecan]	63%	59%	61%	52%	47%	45%	40%	40%	41%	significantly (P<0.02) inhibited	no tumor regressions	52%	45%	35%	34%	34%	26%	inhibition of tumor growth [2]: responses were similar to treatment with CPT-11 alone
Nc1ccn([C@@H]2O[C@H](CO)[C@@H](O)C2(F)F)c(=O)n1 [Gemcitabine, gemcitabine]	–	–	–	–	–	–	–	–	–	–	no tumor regressions	68%	65%	58%	56%	48%	37%	Regressions (individual tumor volumes < day 1 of treatment) ([3]; day 19, animals regressing/animals in group): 0/11; Regressions (individual tumor volumes < day 1 of treatment) ([3]; day 23): 0/8; Regressions (individual tumor volumes < day 1 of treatment) ([3]; day 26): 0/8; Regressions (individual tumor volumes < day 1 of treatment) ([3]; day 30): 0/8; Regressions (individual tumor volumes < day 1 of treatment) ([3]; day 32): 0/8; Regressions (individual tumor volumes < day 1 of treatment) ([3]; day 37): 0/8; Regressions (individual tumor volumes < day 1 of treatment) ([3]; day 41): 0/8; Regressions (individual tumor volumes < day 1 of treatment) ([3]; day 44): 0/7
CC(=O)O[C@H]1C(=O)[C@@]2(C)[C@H]([C@H](OC(=O)c3ccccc3)[C@]3(O)C[C@H](OC(=O)[C@H](O)[C@@H](NC(=O)c4ccccc4)c4ccccc4)C(C)=C1C3(C)C)[C@]1(OC(C)=O)CO[C@@H]1C[C@@H]2O [paclitaxel]	66%	59%	62%	56%	54%	55%	52%	45%	52%	significantly (P<0.02) inhibited	–	–	–	–	–	–	–	–
